Test results reported in patent US20250129096A1, “ANNULATED 2-AMINO-3-CYANO THIOPHENES AND DERIVATIVES FOR THE TREATMENT OF CANCER” (Boehringer Ingelheim Int'l GmbH Corp., priority 2021, published 2025).

Legend:
KRAS (G12D)::SOS1 = biological target: T1, KRAS (G12D)::SOS1 (Homo sapiens, UniProt P01116, G12D); assay: KRAS::SOS1 AlphaScreen binding assay, KRAS G12D
T1 construct: KRAS (G12D) 1-169, N-terminal 6His-tag, C-terminal avi-tag; 6His-tag (N); purchased Xtal BioStructures, Inc. (KRAS G12D); Viva Biotech Ltd (SOS1)
T1 sequence (P01116 1-169 isoform P01116-2 G12D): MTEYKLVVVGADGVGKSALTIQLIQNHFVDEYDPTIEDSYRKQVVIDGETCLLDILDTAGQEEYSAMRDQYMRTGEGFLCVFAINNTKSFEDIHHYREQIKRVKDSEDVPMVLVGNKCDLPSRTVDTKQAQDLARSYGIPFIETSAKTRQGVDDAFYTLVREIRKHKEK
Protocol: Low IC50 values in this assay setting are indicative of strong inhibition of protein-protein interaction between SOS1 and KRAS:
These assays measure the inhibitory effect of compounds on KRAS mutant protein-protein interactions using the Alpha Screen technology by Perkin Elmer.
For the chosen highest assay concentration of 100 μM, 150 nL of compound solution are transferred from a 10 mM DMSO compound stock solution. A series of eleven fivefold dilutions per compound are transferred to the assay plate, compound dilutions are tested in duplicates. DMSO are added as backfill to a total volume of 150 nL.
The assays run on a fully automated robotic system in a darkened room below 100 Lux. To 150 nl of compound dilution 10 μl of a mix including KRAS mutant protein, SOS1 (final assay concentrations see above) and GDP nucleotide (Sigma G7127; final assay concentration 10 μM) in assay buffer (1×PBS, 0.1% BSA, 0.05% Tween 20) are added into columns 1-24. After 30 minutes incubation time 5 μl of Alpha Screen bead mix in assay buffer are added into columns 1-23.
Plates are kept at room temperature in a darkened incubator. After an additional 60 minutes incubation time the signal is measured in a PerkinElmer Envision HTS Multilabel Reader using the AlphaScreen specs from PerkinElmer.
IC50 values are calculated and analyzed with Boehringer Ingelheim's MEGALAB IC50 application using a 4 parametric logistic model.

[1] = tested on: SAS cells (HNSCC, wt amplified); assay: SAS CTG proliferation assay (120 h); type: cell-based; conditions: CellTiter-Glo
Protocol: (§1) SAS cells (JCRB0260) are dispensed into 384-well plates, flat and clear bottom (Greiner, PNr. 781091) at a density of 300 cells per well in 60 μL DMEM:F12 (Gibco 31330-038)+10% Fetal Calf Serum (HyClone, PNr.: SH30084.03) and incubated at 37° C. in a CO2 incubator overnight. The next day, compounds (10 mM stock in DMSO) are added with the ECHO acoustic liquid handler system (Beckman Coulter), including DMSO controls. Plates are incubated for 120 h, and cell viability is measured using CellTiter-Glo luminescent cell viability reagent (Promega product code G7570). Viability (stated as percent of control) is defined as relative luminescence units RLU of each well divided by the RLU of cells in DMSO controls. IC50 values are determined from viability measurements by non-linear regression using a four-parameter model.

KRAS G12D Ba/F3 cells = KRAS G12D Ba/F3 cells (Homo sapiens, UniProt P01116, G12D, cells depend on it); assay: Ba/F3 proliferation assay, KRAS G12D; type: cell-based; conditions: 72 h, AlamarBlue; read-out: KRAS G12D Ba/F3 IC50
KRAS G12D Ba/F3 cells, sequence (P01116 whole entry G12D, canonical isoform): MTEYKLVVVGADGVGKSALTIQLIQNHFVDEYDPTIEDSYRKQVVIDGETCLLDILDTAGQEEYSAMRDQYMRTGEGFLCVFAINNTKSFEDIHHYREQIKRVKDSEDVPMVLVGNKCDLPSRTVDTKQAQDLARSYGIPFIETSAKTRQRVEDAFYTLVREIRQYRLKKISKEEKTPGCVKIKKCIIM
Protocol: (§2) To generate KRASG12-dependent Ba/F3 models, Ba/F3 cells are transduced with retroviruses containing vectors that harbor KRASG12 isoforms. Platinum-E cells (Cell Biolabs) are used for retrovirus packaging. Retrovirus is added to Ba/F3 cells. To ensure infection, 4 μg/mL polybrene is added and cells are spinfected. […] Cells with an infection efficiency of 10% to 20% are further cultivated and puromycin selection with 1 μg/mL is initiated. As a control, parental Ba/F3 cells are used to show selection status. Selection is considered successful when parental Ba/F3 cells cultures died. To evaluate the transforming potential of KRASG12 mutations, the growth medium is no longer supplemented with IL-3. Ba/F3 cells harboring the empty vector are used as a control. Approximately ten days before conducting the experiments, puromycin is left out. […] All treatments are performed in technical duplicates. […] AlamarBlue™(ThermoFisher), a viability stain, is added and fluorescence measured in the PerkinElmer Envision HTS Multilabel Reader. The raw data are imported into and analyzed with the Boehringer Ingelheim proprietary software MegaLab (curve fitting based on the program PRISM, GraphPad Inc.).

[2] = tested on: SK-CO-1 cells (CRC, G12V); assay: SK-CO-1 CTG proliferation assay (120 h); type: cell-based; conditions: Homo sapiens, CellTiter-Glo
Protocol: as §1, with “SK—CO-1 cells (ATCC” for “SAS cells (JCRB0260)”, “SK—CO-1 cells (ATCC HTB-39) are dispensed” for “SAS cells (JCRB0260) are dispensed”, “density of 500 cells per” for “density of 300 cells per”, “60 μL EMEM (Sigma M5650)+10% Fetal Calf” for “60 μL DMEM:F12 (Gibco 31330-038)+10% Fetal Calf”

KRAS G12V Ba/F3 cells = KRAS G12V Ba/F3 cells (Homo sapiens, UniProt P01116, G12V, cells depend on it); assay: Ba/F3 proliferation assay, KRAS G12V; type: cell-based; conditions: 72 h, AlamarBlue; read-out: KRAS G12V Ba/F3 IC50
KRAS G12V Ba/F3 cells, sequence (P01116 whole entry G12V): as the sequence (P01116 whole entry G12D, canonical isoform) above, with D12V counted along it
Protocol: as §2

| SMILES | IC50 (KRAS (G12D)::SOS1) [nM] | IC50 [1] [nM] | GI50 (KRAS G12D Ba/F3 cells) [nM] | IC50 [2] [nM] | GI50 (KRAS G12V Ba/F3 cells) [nM] |
| --- | --- | --- | --- | --- | --- |
| C[C@H]1CNCCCN1c1nccc(-c2noc3c2CCC[C@@]32CCCc3sc(N)c(C#N)c32)n1 (single isomer, unassigned) [IIb-5] | 3 | 541 | 32 | 563 |  |
| CC1Cc2c(-c3ccnc(N4CCCNC[C@@H]4C)n3)noc2C2(CCCc3sc(N)c(C#N)c32)C1 (stereo partly shown) [IIb-1] | 31 | 8230 | 469 | 2690 | 337 |
| C[C@H]1CNCCCN1c1nccc(-c2noc3c2CC(F)(F)CC32CCCc3sc(N)c(C#N)c32)n1 (stereo partly shown) [IIb-2] | 21 | 2960 | 798 | 6240 | 478 |
| C[C@H](Oc1ccnc(-c2noc3c2CCC[C@@]32CCCc3sc(N)c(C#N)c32)n1)[C@@H]1CCCN1C [IIb-3] | 2 | 4960 | 16 | 285 | 25 |
| C[C@H]1CNCCCN1c1nccc(-c2noc3c2CSCC32CCCc3sc(N)c(C#N)c32)n1 (stereo partly shown) [IIb-4] | 13 | 8080 | 174 | 2390 | 138 |
| C[C@H]1CNCCCN1c1nccc(-c2noc3c2OCCC32CCCc3sc(N)c(C#N)c32)n1 (stereo partly shown) [IIb-7] | 2 | 6600 | 123 | 455 | 136 |
| C[C@H](Oc1nccc(-c2noc3c2CCC[C@@]32CCCc3sc(N)c(C#N)c32)n1)[C@@]1(C)CCCN1C [IIe-1] | 4 | 4530 | 155 | 1030 | 203 |
| C[C@H]1CNCCN1c1nccc(-c2noc3c2CCC[C@@]32CCCc3sc(N)c(C#N)c32)n1 [IIf-1] |  | 1380 |  | 600 |  |
| C[C@@H]1NCCCN(c2nccc(-c3onc4c3CCC[C@@]43CCCc4sc(N)c(C#N)c43)n2)[C@H]1C [Ib-2] | 5 | 1090 | 101 | 457 |  |
| C[C@H]1CNCCCN1c1ncnc(-c2onc3c2CCC[C@@]32CCCc3sc(N)c(C#N)c32)n1 [Ib-4] | 4 | 57 | 211 | 930 |  |
| C[C@H]1[C@@H]2CCCN2CCCN1c1nccc(-c2onc3c2CCC[C@@]32CCCc3sc(N)c(C#N)c32)n1 [Id-1] | 1 | 3990 | 27 | 4680 |  |
| CO[C@@H]1C[C@@H]([C@H](C)Oc2nccc(-c3onc4c3CCC[C@@]43CCCc4sc(N)c(C#N)c43)n2)N(C)C1 [Ie-1] | 2 | 13600 | 28 | 2520 | 29 |
| C[C@H](Oc1nccc(-c2onc3c2CCC[C@@]32CCCc3sc(N)c(C#N)c32)n1)[C@@H]1C[C@@H](F)CN1C [Ie-2] | 2 | 8000 | 66 | 1040 | 106 |
| CCN1[C@H]2C[C@H]2C[C@H]1[C@H](C)Oc1nccc(-c2onc3c2CCC[C@@]32CCCc3sc(N)c(C#N)c32)n1 [Ie-3] | 3 | 370 | 33 | 817 | 84 |
| CC(Oc1nccc(-c2onc3c2CCC[C@@]32CCCc3sc(N)c(C#N)c32)n1)C12CCCN1CCC2 (stereo partly shown) [Ie-5] | 4 | 1710 | 66 | 798 | 92 |
| C[C@H]1CNCCCN1c1nccc(-c2onc3c2CCC[C@@]32CCCc3sc(N)c(C#N)c32)n1 [If-1] | 5 | 8270 | 77 | 2730 | 98 |
| C[C@H](Oc1nccc(-c2onc3c2CCC[C@@]32CCCc3sc(N)c(C#N)c32)n1)[C@@H]1C[C@@H]2C[C@@H]2N1 [If-2] | 6 | 8840 | 4670 | 7920 |  |
| C[C@H](Oc1nccc(-c2onc3c2CCC[C@@]32CCCc3sc(N)c(C#N)c32)n1)[C@@H]1C[C@@H]2C[C@@H]2N1C [Ih-1] | 4 | 428 | 43 | 398 | 94 |
